Measured values as given in patent US10633394B2, “Heterocyclic derivatives and use thereof” (C & C RESEARCH LABORATORIES, priority 2014, dated 2020).

Assays:
Assay type in all cases: cell-based
[1] = molecular target: T1, STAT3 (Homo sapiens, UniProt P40763); test: STAT3 reporter gene (luciferase) assay in LNCaP stable cell line stimulated with IL-6; settings: LNCaP stable cell line (pSTAT3-TA-luc), IL-6 10 ng/mL, 24 hours
T1 construct: plasmid pSTAT3-TA-luc), which contains a stably operating STAT3 promoter; endogenous in cells
T1 sequence (P40763 whole entry): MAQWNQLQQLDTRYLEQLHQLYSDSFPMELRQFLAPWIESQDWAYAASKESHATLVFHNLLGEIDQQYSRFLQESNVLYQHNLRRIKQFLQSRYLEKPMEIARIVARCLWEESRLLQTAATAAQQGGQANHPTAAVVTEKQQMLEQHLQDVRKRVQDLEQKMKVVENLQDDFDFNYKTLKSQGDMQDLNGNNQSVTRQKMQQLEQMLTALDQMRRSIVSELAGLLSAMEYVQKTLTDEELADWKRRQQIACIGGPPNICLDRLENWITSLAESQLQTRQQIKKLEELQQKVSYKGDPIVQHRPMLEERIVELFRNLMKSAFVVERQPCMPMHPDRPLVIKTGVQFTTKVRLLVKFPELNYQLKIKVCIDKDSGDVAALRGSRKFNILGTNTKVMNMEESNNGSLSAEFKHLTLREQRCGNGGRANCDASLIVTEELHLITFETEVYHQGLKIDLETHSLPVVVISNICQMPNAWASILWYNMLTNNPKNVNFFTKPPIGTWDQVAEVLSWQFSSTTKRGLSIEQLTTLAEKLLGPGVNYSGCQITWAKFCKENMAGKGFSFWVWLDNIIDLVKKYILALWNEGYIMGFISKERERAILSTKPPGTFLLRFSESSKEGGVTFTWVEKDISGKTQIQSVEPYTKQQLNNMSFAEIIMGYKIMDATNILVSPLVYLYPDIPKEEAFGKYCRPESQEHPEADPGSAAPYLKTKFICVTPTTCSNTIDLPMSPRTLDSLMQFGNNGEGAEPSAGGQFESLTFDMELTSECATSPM
Method: 1-1) Experiment on the Inhibition of STAT3 Activity
A human prostate cancer cell line (LNCaP stable cell line; plasmid pSTAT3-TA-luc), which contains a stably operating STAT3 promoter, was cultured in RPMI1640 medium (Cat No. 11875, Life Technologies) containing 10% fetal bovine serum (FBS) (Cat No. SH30396, Thermo Scientific) and 150 μg/mL G-418 solution (Cat No. 04 727 894 001, Roche). The reporter gene assay using LNCaP stable cell line was performed in RPMI1640 medium containing 3% DCC-FBS without G-418 solution. LNCaP stable cells were plated in two (2) white 96-well plates with 30,000 cells/50 μL in each well. The cells were cultured at 37° C., under 5% CO2 for 24 hours, and then treated with the compounds listed in Examples which were diluted in various concentrations. Subsequently, IL-6 was added to each well with a final concentration of 10 ng/mL. Upon completion of the treatment with the compounds and IL-6, the cells were cultured at 37° C., under 5% CO2 for 24 hours. The plates were observed under microscope and drug precipitation and particular findings were investigated and recorded.
The luciferase assay and the cell viability assay were performed respectively with one of the two plates. For the luciferase assay, the liquid media in the 96-well plate was removed, and then, 20 μL of passive cell lysis buffer was added to each well. After shaking the plate for 30 minutes, luciferase activities of each well were measured in a PHERAstar™ microplate reader (BMG LABTECH) using a luciferase assay system (Cat No. E1501, Promega). For the cell viability assay, the 96-well plate was placed at room temperature for 30 minutes, added with 20 μL/well of CellTiter-Glo solution (Cat No. G7573, Promega), and shaken for 10 minutes in order to measure cytotoxicity caused by the compounds listed in Examples with a PHERAstar™ microplate reader (BMG LABTECH). Wells without 0.1% DMSO and stimulation were used as a negative control and wells with 0.1% DMSO and stimulation were used as a positive control.
The results of evaluation on the inhibitory effect of the compounds listed in the Examples on the dimerization of STAT3 and STAT1 obtained via the STAT3 and STAT1 reporter gene assays are shown in Table 6 below.

[2] = test system: MDA-MB-468; test: Cell growth inhibition assay (CellTiter-Glo), breast cancer cell line MDA-MB-468; settings: Homo sapiens; MDA-MB-468 cells, 96 hours
Method: (§1) The inhibitory effects of the compounds of the present invention against the growth of cancer cells were evaluated as shown below. The cancer cell lines including stomach cancer cell line (NCI-N87) and breast cancer cell line (MDA-MB-468) were cultured under the protocol provided by each supplier. Each type of cells to be used in experiments was sub-cultured in a 96-well plate by counting the exact number of cells using Tali™ Image-based Cytometer (Life Technologies). In a 96-well plate, NCI-N87 was employed with 5,000 cells/well; and MDA-MB-468 was employed with 10,000 cells/well. The cells were treated with the compounds listed in Examples which were diluted in various concentrations. Upon completion of the compounds treatment, NCI-N87 cells were cultured at 37° C. under 5% CO2 for 96 hours, and MDA-MB-468 cells were cultured at 37° C. in air for 96 hours. Subsequently, the cells were observed under microscope and drug precipitation and particular findings were investigated and recorded. And then, the 96-well plate was placed at room temperature for 30 minutes, added with 20 μL/well of CellTiter-Glo solution (Cat No. G7573, Promega) and shaken for 10 minutes, followed by being subjected to the measurement using PHERAstar™ microplate reader (BMG LABTECH) according to the supplier's general luminometer protocol. Wells where only culture liquid added without cell plating were used as a negative control, whereas wells where culture liquid containing 0.1% DMSO instead of the compounds listed in Examples were used as a positive control.

[3] = test system: NCI-N87; test: Cell growth inhibition assay (CellTiter-Glo), stomach cancer cell line NCI-N87; settings: Homo sapiens; NCI-N87 cells, 96 hours
Method: as §1

| SMILES | IC50 [1] | IC50 [2] | IC50 [3] |
| --- | --- | --- | --- |
| CS(=O)(=O)C1CCOc2cc3sc(C(=O)Nc4cc(Cl)nc(Oc5cccc(C(F)(F)F)c5)c4)cc3cc21 (stereo not drawn) [Example 16, N-(2-chloro-6-(3-(trifluoromethyl)phenoxy)pyridin-4-yl)-4-(methylsulfonyl)-3,4-dihydro-2H-thieno[3,2-g]chromene-7-carboxamide] | 0.0051 µM | 0.0039 µM | 0.021 µM |
| CS(=O)(=O)C1CCOc2cc3sc(C(=O)Nc4cc(Cl)nc(Oc5ccc(C(F)(F)F)cc5)c4)cc3cc21 (stereo not drawn) [Example 17, N-(2-chloro-6-(4-(trifluoromethyl)phenoxy)pyridin-4-yl)-4-(methylsulfonyl)-3,4-dihydro-2H-thieno[3,2-g]chromene-7-carboxamide] | 0.0039 µM | 0.0023 µM | 0.011 µM |
| CS(=O)(=O)C1CCOc2cc3sc(C(=O)Nc4cc(Cl)nc(Oc5cc(Cl)cc(Cl)c5)c4)cc3cc21 (stereo not drawn) [Example 18, N-(2-chloro-6-(3,5-dichlorophenoxy)pyridin-4-yl)-4-(methylsulfonyl)-3,4-dihydro-2H-thieno[3,2-g]chromene-7-carboxamide] | 0.015 µM | 0.0043 µM | 0.02 µM |
| CS(=O)(=O)C1CCOc2cc3sc(C(=O)Nc4cc(Cl)nc(Oc5ccc(Cl)c(F)c5)c4)cc3cc21 (stereo not drawn) [Example 19, N-(2-chloro-6-(4-chloro-3-fluorophenoxy)pyridin-4-yl)-4-(methylsulfonyl)-3,4-dihydro-2H-thieno[3,2-g]chromene-7-carboxamide] | 0.0084 µM | 0.0025 µM | 0.0061 µM |
| Cc1cc(Oc2cc(NC(=O)c3cc4cc5c(cc4s3)OCCC5S(C)(=O)=O)cc(Cl)n2)ccc1Cl (stereo not drawn) [Example 20, N-(2-chloro-6-(4-chloro-3-methylphenoxy)pyridin-4-yl)-4-(methylsulfonyl)-3,4-dihydro-2H-thieno[3,2-g]chromene-7-carboxamide] | 0.01 µM | 0.0024 µM | 0.0094 µM |
| Cc1cc(Cl)ccc1Oc1cc(NC(=O)c2cc3cc4c(cc3s2)OCCC4S(C)(=O)=O)cc(Cl)n1 (stereo not drawn) [Example 21, N-(2-chloro-6-(4-chloro-2-methylphenoxy)pyridin-4-yl)-4-(methylsulfonyl)-3,4-dihydro-2H-thieno[3,2-g]chromene-7-carboxamide] | 0.011 µM | 0.0051 µM | 0.018 µM |
| COc1ccc(Oc2cc(NC(=O)c3cc4cc5c(cc4s3)OCCC5S(C)(=O)=O)cc(Cl)n2)cc1 (stereo not drawn) [Example 22, N-(2-chloro-6-(4-methoxyphenoxy)pyridin-4-yl)-4-(methylsulfonyl)-3,4-dihydro-2H-thieno[3,2-g]chromene-7-carboxamide] | 0.03 µM | 0.017 µM | 0.071 µM |
| CS(=O)(=O)C1CCOc2cc3sc(C(=O)Nc4cc(Cl)nc(Oc5ccc(Cl)cc5F)c4)cc3cc21 (stereo not drawn) [Example 23, N-(2-chloro-6-(4-chloro-2-fluorophenoxy)pyridin-4-yl)-4-(methylsulfonyl)-3,4-dihydro-2H-thieno[3,2-g]chromene-7-carboxamide] | 0.0063 µM | 0.0028 µM | 0.0056 µM |
| CS(=O)(=O)C1CCOc2cc3sc(C(=O)Nc4cc(Cl)nc(Oc5ccc(Cl)c(Cl)c5)c4)cc3cc21 (stereo not drawn) [Example 24, N-(2-chloro-6-(3,4-dichlorophenoxy)pyridin-4-yl)-4-(methylsulfonyl)-3,4-dihydro-2H-thieno[3,2-g]chromene-7-carboxamide] | 0.0062 µM | 0.0024 µM | 0.0038 µM |
| CS(=O)(=O)C1CCOc2cc3sc(C(=O)Nc4cc(Cl)nc(Oc5cccc(Cl)c5)c4)cc3cc21 (stereo not drawn) [Example 25, N-(2-chloro-6-(3-chlorophenoxy)pyridin-4-yl)-4-(methylsulfonyl)-3,4-dihydro-2H-thieno[3,2-g]chromene-7-carboxamide] | 0.011 µM | 0.0049 µM | 0.01 µM |
| CS(=O)(=O)C1CCOc2cc3sc(C(=O)Nc4cc(Cl)nc(Oc5ccc(F)cc5)c4)cc3cc21 (stereo not drawn) [Example 26, N-(2-chloro-6-(4-fluorophenoxy)pyridin-4-yl)-4-(methylsulfonyl)-3,4-dihydro-2H-thieno[3,2-g]chromene-7-carboxamide] | 0.0073 µM | 0.0046 µM | 0.0072 µM |
| CS(=O)(=O)C1CCOc2cc3sc(C(=O)Nc4cc(Cl)nc(Oc5ccc(F)c(Cl)c5)c4)cc3cc21 (stereo not drawn) [Example 27, N-(2-chloro-6-(3-chloro-4-fluorophenoxy)pyridin-4-yl)-4-(methylsulfonyl)-3,4-dihydro-2H-thieno[3,2-g]chromene-7-carboxamide] | 0.0078 µM | 0.0029 µM | 0.0049 µM |
| CS(=O)(=O)C1CCOc2cc3sc(C(=O)Nc4cc(Cl)nc(Oc5ccc(OC(F)(F)F)cc5)c4)cc3cc21 (stereo not drawn) [Example 28, N-(2-chloro-6-(4-(trifluoromethoxy)phenoxy)pyridin-4-yl)-4-(methylsulfonyl)-3,4-dihydro-2H-thieno[3,2-g]chromene-7-carboxamide] | 0.0051 µM | 0.002 µM | 0.0056 µM |
| CS(=O)(=O)C1CCOc2cc3sc(C(=O)Nc4cc(Cl)nc(Oc5cccc(OC(F)(F)F)c5)c4)cc3cc21 (stereo not drawn) [Example 29, N-(2-chloro-6-(3-(trifluoromethoxy)phenoxy)pyridin-4-yl)-4-(methylsulfonyl)-3,4-dihydro-2H-thieno[3,2-g]chromene-7-carboxamide] | 0.0059 µM | 0.0029 µM | 0.0046 µM |
| COc1cc(Cl)cc(Oc2cc(NC(=O)c3cc4cc5c(cc4s3)OCCC5S(C)(=O)=O)cc(Cl)n2)c1 (stereo not drawn) [Example 30, N-(2-chloro-6-(3-chloro-5-methoxyphenoxy)pyridin-4-yl)-4-(methylsulfonyl)-3,4-dihydro-2H-thieno[3,2-g]chromene-7-carboxamide] | 0.02 µM | 0.0085 µM | 0.025 µM |
| CS(=O)(=O)C1CCOc2cc3sc(C(=O)Nc4cc(Cl)nc(Oc5cc(F)cc(Cl)c5)c4)cc3cc21 (stereo not drawn) [Example 31, N-(2-chloro-6-(3-chloro-5-fluorophenoxy)pyridin-4-yl)-4-(methylsulfonyl)-3,4-dihydro-2H-thieno[3,2-g]chromene-7-carboxamide] | 0.008 µM | 0.0022 µM | 0.009 µM |
| COc1cc(F)cc(Oc2cc(NC(=O)c3cc4cc5c(cc4s3)OCCC5S(C)(=O)=O)cc(Cl)n2)c1 (stereo not drawn) [Example 32, N-(2-chloro-6-(3-fluoro-5-methoxyphenoxy)pyridin-4-yl)-4-(methylsulfonyl)-3,4-dihydro-2H-thieno[3,2-g]chromene-7-carboxamide] | 0.016 µM | 0.0089 µM | 0.031 µM |
| Cc1cccc(Oc2cc(NC(=O)c3cc4cc5c(cc4s3)OCCC5S(C)(=O)=O)cc(Cl)n2)c1 (stereo not drawn) [Example 33, N-(2-chloro-6-(m-tolyloxy)pyridin-4-yl)-4-(methylsulfonyl)-3,4-dihydro-2H-thieno[3,2-g]chromene-7-carboxamide] | 0.0098 µM | 0.0093 µM | 0.024 µM |
| CS(=O)(=O)C1CCOc2cc3sc(C(=O)Nc4cc(Cl)nc(Oc5ccc(F)c(F)c5)c4)cc3cc21 (stereo not drawn) [Example 34, N-(2-chloro-6-(3,4-difluorophenoxy)pyridin-4-yl)-4-(methylsulfonyl)-3,4-dihydro-2H-thieno[3,2-g]chromene-7-carboxamide] | 0.0064 µM | 0.0023 µM | 0.0092 µM |
